The source of these data is patent publication US12251366B1, “Sulforaphane-cysteine for wound healing in diabetic subjects” (KUWAIT UNIVERSITY, priority 2024, dated 2025).

One data set has as its system TNF-α. As to the kind of experiment: Cytokine ELISA, LPS-stimulated peritoneal macrophages (TNF-α). Type of data set: cell-based, mouse. The text has this:
(§1) This was exemplified in the current study by the ability of SFN-CYS to inhibit lipopolysaccharide (LPS)-induced peritoneal macrophages and bone marrow-derived macrophages to produce tumor necrosis factor-α (TNF-α) and interlukin-6 (IL-6). TNF-α and IL-6 are two of the major inflammatory mediators that contribute to the pathogenesis of low-grade inflammation; a phenomenon which is commonly associated with the diabetic state. […] Pre-treatment with SFN-Cys inhibited the expression of LPS-induced TNF-α and IL-6 protein at a therapeutic dose of 1.5 μM (FIGS. 1A and 1B).
(§2) Thioglycollate-elicited mouse peritoneal macrophages were prepared from C57BL (8-10 weeks old) and cultured in RPMI 1640 with 10% (v/v) FCS Bone marrow-derived macrophages were generated in RPMI medium containing M-CSF (10 ng/mL) according to previously published procedure. For cytokine ELISA assay, cells were seeded at 5×10^5 in 12-well plates, whereas for mRNA expression, the cells were seeded at […]. LPS and used at a dose of 100 ng/mL. Similarly. SFN-Cys was used at a concentration of 1.5 umol/L.
(§3) For cytokine ELISA, supernatants from cultured macrophages were collected in response to treatment with SFN and SFN-Cys for 6 h. The total TNF-α and TL-6 were measured by enzyme-linked immunosorbent assay (ELISA) using kits (R&D system, USA) according to the manufacturer's protocols.
In general terms: An ELISA detects its analyte on a solid surface through an enzyme-linked reagent.

For another data set, the system named is IL-6. As to the kind of experiment: Cytokine ELISA, LPS-stimulated peritoneal macrophages (IL-6). Type of data set: cell-based, mouse. Particulars: LPS 100 ng/mL 6 hours, pre-treatment 1.5 μM.
Excerpt: as §1, §2, §3

The next data set concerns heme oxygenase (HO). As to the kind of experiment: mRNA expression of Nrf2 target gene HO in fibroblasts. Type of data set: cell-based, rat. The settings on record: diabetic fibroblasts, 1.5 μM. How it is done: To better characterize how SFN-Cys impacts cellular antioxidant levels, the ability of SFN-Cys to regulate the transcription factor nuclear factor erythroid 2-related factor 2 (Nrf2) was assessed, which is a master regulator of the antioxidative stress response that induces the expression of antioxidant proteins such as heme oxygenase (HO) and NAD(P)H dehydrogenase (quinine; NQO1) and key enzymes in the glutathione system. In this context, Nrf2 transcriptional activity was first measured using a vector encoding luciferase driven by the NQO1 promoter. […] Administration of SNF-Cyst at the above indicated concentration (1.5 μM, the lowest effective concentration) ameliorated diabetes-induced suppression of the Nrf2 activity and Nrf2-target genes including HO and NQO1 (FIG. 2A-D).
Total RNA from cells or frozen sponge implants was extracted using the Trizol reagent (Invitrogen), and the RNA integrity was verified by agarose gel electrophoresis. […] The amplified sequences were assessed using the ABI 7500 Prism Sequence Detection system machine. The results were expressed as mRNA levels normalized to 18S or GAPDH in each sample.

Data set [1] relates to Vimentin-TGF-β-Slug signaling pathway. As to the kind of experiment: Vimentin-TGF-β-Slug signaling in diabetic wound biopsies. Type of data set: in vivo, rat. Particulars: semi-chronic administration. The source says: Although the molecular mechanism by which SFN-Cyst enhanced wound healing potential was not fully explored in this study, it is possible to involve the Vimentin-TGF-β-Slug signaling pathway. Vimentin is an intermediate filament protein that participates in several cellular processes essential for wound healing, including cell proliferation, adhesion, migration and cytoskeletal rearrangement. Moreover, vimentin also amplifies epithelial-mesenchymal-transition via enhancing TGF-β-Slug signaling. […] A similar reduction in TGF-β-Slug signaling level was also evident in this disease state (FIG. 3D).
Total RNA from cells or frozen sponge implants was extracted using the Trizol reagent (Invitrogen), and the RNA integrity was verified by agarose gel electrophoresis. Approximately 1 μg of RNA was reverse transcribed (Superscript II Reverse Transcriptase Kit, Invitrogen) and amplified using the TaqMan Assay on Demand (Applied Biosystems) in a 25 μL reaction volume containing two unlabeled primers, a 6-carboxyfluorescien-labeled TaqMan MGB probe and the master mix. The amplified sequences were assessed using the ABI 7500 Prism Sequence Detection system machine. The results were expressed as mRNA levels normalized to 18S or GAPDH in each sample.

The nature of data set [2]: Toxicity assessment of chronically administered SFN-Cys (body weight, behavior). Particulars: mice, 21 days. Type of data set: in vivo, mouse. How it is done:
Testing the pharmacodynamic and toxicodynamic properties of SFN-Cys dictated the mixing SFN-Cys with a powdered diet. The estimated dose delivered by this diet was 1.5-2.5 μmol/mouse (n=4). The SFN-Cys diet was stored at 4° C. and the feeders were refilled daily for the duration of the study (21 days). Corresponding animals received food without the drug.
To strengthen this conclusion, extensive measurements were conducted on plasma levels of key parameters of kidney and liver toxicities in addition to the lipid and carbohydrate profiles.
For dietary treatment with SFN-Cys, the SFN-Cys was mixed with a powdered diet (7.5 mg of SFN-Cys per kg of food). The estimated dose delivered by this diet was about 1.0-1.5 mg/kg. The diet was stored at 4° C. and the feeders were refilled daily. Control animals received diet alone. Body weights were recorded twice a week and at the termination of the study, blood was drawn in EDTA-containing tubes, plasma was collected by centrifugation and stored at −80° C. until analysis.

Data set [3] is described as follows: Muscle weight in diabetic mice (sarcopenia). Type of data set: in vivo. The text has this:
Therapeutic rational was considered for SFN-Cys effectiveness in the following pathological conditions: Sarcopenia-SFN-Cys increased muscle weight in diabetic mice, see FIGS. 4A and 4B; Cardiac fibrosis-SFN-Cys inhibits transforming growth factor beta (TGF-β) expression, see FIG. 4C; Erectile dysfunction-SFN-Cys increased endothelial nitric oxide activity and expression in corpus cavernosum.

Molecules are shown by their SMILES. Entries after “also recorded” stand apart in the source; their conditions may differ.

For `C[S+]([O-])CCCCNC(=S)SCC(N)C(=O)O` (centres unmarked) [SFN-Cys, Sulforaphane-Cysteine], the “anti-inflammatory activity (overall, SFN-Cys compared with SFN)” value in the data set with TNF-α (LPS-stimulated macrophages, mouse model of type 2 diabetes) is “exhibited anti-inflammatory and antioxidant activities; also recorded: more potent than SFN”. The “expression of LPS-induced TNF-α protein” value with TNF-α (peritoneal macrophages, LPS 100 ng/mL 6 hours, pre-treatment 1.5 μM, ELISA) is “inhibited”. The “expression of LPS-induced IL-6 protein” value with IL-6 was “inhibited”. The “mRNA expression of Nrf2 target gene HO” value in the data set with heme oxygenase (HO) is “ameliorated”. In addition, the “deficit in Vimentin-TGF-β-Slug signaling” value in data set [1] was “ameliorated”. The body weight in data set [2] (SFN-Cys diet, in g (unit assumed)) was 22.7±3.2. Also, in data set [2] (chronic SFN-Cys diet), the “signs of adverse effect (body weight and behavior)” value is on record as “no obvious signs of adverse effect”. Moreover, the muscle weight entry in data set [3] is listed as “increased”.
